In PMC10263468, “Biosynthesis of cannabigerol and cannabigerolic acid: the gateways to further cannabinoid production” (Synthetic Biology, 2023):

Key:
Assay in all cases: endpoint assay, LC-MS quantification of product
AtaPT [1] = target: T1, AtaPT (Aspergillus terreus, UniProt A0A1B0UHJ4, E91D); assay type: biochemical; settings: read-out: Apparent Km; co-substrate GPP 1 mM; 1 μM enzyme; 25 mM Tris pH 8, 150 mM NaCl, 5% glycerol; 25°C; approximate constant
T1 construct: gene PT; N-terminal His6 tag (pETM11), codon-optimised synthetic gene, E. coli ArcticExpress (DE3), purified
T1 sequence (A0A1B0UHJ4 whole entry E91D): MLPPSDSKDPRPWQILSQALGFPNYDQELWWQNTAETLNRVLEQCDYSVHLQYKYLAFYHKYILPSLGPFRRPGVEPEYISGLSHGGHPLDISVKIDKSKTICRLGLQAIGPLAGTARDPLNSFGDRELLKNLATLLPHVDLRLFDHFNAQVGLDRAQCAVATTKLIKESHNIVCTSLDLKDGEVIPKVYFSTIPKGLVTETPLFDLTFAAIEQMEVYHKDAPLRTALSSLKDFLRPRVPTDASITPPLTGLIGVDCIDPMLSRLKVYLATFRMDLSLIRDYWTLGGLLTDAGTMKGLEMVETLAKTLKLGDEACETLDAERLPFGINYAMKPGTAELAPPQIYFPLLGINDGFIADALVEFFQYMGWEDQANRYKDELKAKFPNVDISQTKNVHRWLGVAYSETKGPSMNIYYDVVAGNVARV
Description: (§1) endpoint assay, LC-MS quantification of product on AtaPT

AtaPT [2] = target: T2, AtaPT (Aspergillus terreus, UniProt A0A1B0UHJ4, E91A); assay type: biochemical; settings: read-out: Apparent Km; co-substrate GPP 1 mM; 1 μM enzyme; 25 mM Tris pH 8, 150 mM NaCl, 5% glycerol; 25°C; approximate constant
T2 construct: gene PT; N-terminal His6 tag (pETM11), codon-optimised synthetic gene, E. coli ArcticExpress (DE3), purified
T2 sequence (A0A1B0UHJ4 whole entry E91A): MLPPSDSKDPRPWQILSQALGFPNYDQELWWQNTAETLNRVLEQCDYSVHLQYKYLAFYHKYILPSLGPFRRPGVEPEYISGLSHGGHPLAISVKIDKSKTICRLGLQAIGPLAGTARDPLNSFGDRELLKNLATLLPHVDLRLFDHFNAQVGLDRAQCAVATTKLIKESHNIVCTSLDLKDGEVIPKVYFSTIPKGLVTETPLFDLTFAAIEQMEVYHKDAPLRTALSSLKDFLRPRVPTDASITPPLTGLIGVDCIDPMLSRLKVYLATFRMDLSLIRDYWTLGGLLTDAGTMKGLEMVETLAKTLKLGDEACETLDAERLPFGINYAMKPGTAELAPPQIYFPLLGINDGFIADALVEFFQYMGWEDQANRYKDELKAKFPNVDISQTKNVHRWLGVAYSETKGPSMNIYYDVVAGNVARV
Description: as §1

AtaPT [3] = target: T3, AtaPT (Aspergillus terreus, UniProt A0A1B0UHJ4, E91Q); assay type: biochemical; settings: read-out: Apparent Km; co-substrate GPP 1 mM; 1 μM enzyme; 25 mM Tris pH 8, 150 mM NaCl, 5% glycerol; 25°C; approximate constant
T3 construct: gene PT; N-terminal His6 tag (pETM11), codon-optimised synthetic gene, E. coli ArcticExpress (DE3), purified
T3 sequence (A0A1B0UHJ4 whole entry E91Q): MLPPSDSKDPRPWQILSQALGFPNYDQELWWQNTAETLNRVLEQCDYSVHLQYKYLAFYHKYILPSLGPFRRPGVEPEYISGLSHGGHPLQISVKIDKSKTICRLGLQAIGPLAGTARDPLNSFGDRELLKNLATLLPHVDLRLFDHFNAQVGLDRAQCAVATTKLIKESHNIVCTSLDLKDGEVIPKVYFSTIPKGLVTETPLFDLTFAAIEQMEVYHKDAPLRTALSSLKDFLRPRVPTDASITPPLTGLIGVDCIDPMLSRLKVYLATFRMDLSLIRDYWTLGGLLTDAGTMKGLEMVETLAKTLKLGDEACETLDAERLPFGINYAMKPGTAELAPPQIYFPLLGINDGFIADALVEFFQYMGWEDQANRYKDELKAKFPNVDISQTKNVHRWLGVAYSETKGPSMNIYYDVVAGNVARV
Description: as §1

[4] = tested on: CCCCCc1cc(O)cc(O)c1C(=O)O; assay type: biochemical, Aspergillus terreus; settings: co-substrate GPP 1 mM, 10 μM enzyme, 25 mM Tris pH 8, 150 mM NaCl, 5% glycerol, 25°C, approximate constant (high enzyme concentration)
Description: as §1

Row | Compound | Km (AtaPT [1]) | Km (AtaPT [2]) | Km (AtaPT [3]) | Km [4] | kcat [4]
1 | CCCCCc1cc(O)cc(O)c1C(=O)O [OA, olivetolic acid] | 266 ± 44 µM | 332 ± 96 µM | 94 ± 32 µM |  | 
2 | AtaPT (Aspergillus terreus) |  |  |  | 1083 ± 126 µM | 0.000147 ± 5e-06 s⁻¹
